Measurements published in US6825199B2, “7-Substituted quinazolin-2,4-diones useful as antibacterial agents” (Warner-Lambert Company, priority 1997, dated 2004).
Values after ≈ are worked out from the molar mass of the structure shown. Like-named read-outs stand apart in the source and are kept apart here.

Key:
[1] = tested on: E. coli B90; experiment: Antibacterial assay, standard microtitration (MIC); type: cell-based; conditions: Gram negative; for MIC: Escherichia coli, B90, read-out: Minimum Inhibitory Concentrations E. coli B90
Experimental: (§1) Antibacterial assay: The compounds of the present invention were tested against an assortment of Gram negative and Gram positive organisms using standard microtitration techniques (Cohen, et al., Antimicrob. Agents Chemother., 1985;28:766; Heifetz, et al., Antimicrob. Agents Chemother., 1974;6:124).

[2] = tested on: E. coli MC4100; experiment: Antibacterial assay, standard microtitration (MIC); type: cell-based; conditions: Gram negative; for MIC: Escherichia coli, MC4100, read-out: Minimum Inhibitory Concentrations E. coli MC4100
Experimental: as §1

[3] = tested on: E. coli Tol C; experiment: Antibacterial assay, standard microtitration (MIC); type: cell-based; conditions: for MIC: Escherichia coli, read-out: Minimum Inhibitory Concentrations E. coli Tol C; for Minimum Inhibitory Concentrations E. coli Tol C: Gram negative
Experimental: as §1

[4] = tested on: S. aureus 29213; experiment: Antibacterial assay, standard microtitration (MIC); type: cell-based; conditions: Gram positive; for MIC: Staphylococcus aureus, 29213, read-out: Minimum Inhibitory Concentrations S. aureus 29213
Experimental: as §1

[5] = tested on: S. pyogenes C203; experiment: Antibacterial assay, standard microtitration (MIC); type: cell-based; conditions: Gram positive; for MIC: Streptococcus pyogenes, C203, read-out: Minimum Inhibitory Concentrations S. pyogenes C203
Experimental: as §1

[6] = biological target: T1, E. coli gyrase (Escherichia coli, UniProt P0AES4+P0AES6); experiment: DNA gyrase supercoiling inhibition assay; type: biochemical
T1 construct: purchased Lucent, Ltd., Leicester, UK
Experimental: DNA gyrase assay: The effects of test agents on the activity of DNA gyrase was determined by the supercoiling inhibition assay, following reaction conditions recommended by the enzyme supplier (Lucent, Ltd., Leicester, UK), as follows. Reactions were performed in buffer G (35 mM Tris-HCl (pH 7.5), 24 mM KCl, 4 mM MgCl2, 2 mM DTT, 1.8 mM spermidine, 1 mM ATP, 0.1 mg/mL bovine serum albumin). 0.25 μg of relaxed plasmid pBR322 (Lucent, Ltd., Leicester, UK) was reacted with 1 U E. coli gyrase (Lucent, Ltd., Leicester, UK), in the absence or presence of drugs, for 30 minutes at 37° C. Reactions were stopped by the addition of SDS and proteinase K to respective final concentrations of 1% and 0.5 mg/mL. After an additional 30 minutes at 37° C., one-tenth volume of 10×loading buffer (0.3% bromophenol blue, 16% Ficoll, 10 mM Na2HPO4) was added, and reactions were loaded onto agarose gels and electrophoresed as described above for intercalation assays. The concentration of drug inhibiting 50% of the supercoiling activity of DNA gyrase is given as an IC50 and recorded in Table 2.

[7] = biological target: T2, E. coli Topoisomerase IV (Escherichia coli, UniProt P0AFI2+P20083); experiment: Topoisomerase IV k-DNA decatenation assay; type: biochemical
T2 construct: made in house; host or cells: E. coli overexpressing strains
Experimental: Topoisomerase IV assay: Topoisomerase IV was purified from E. coli overexpressing strains, and the compounds were assayed according to literature conditions (Journal of Biological Chemistry, 1993;268(32):24481). The k-DNA decatenation assay was used. Briefly, reactions were performed in buffer R (40 mM Tris-HCl (pH 7.5),6 mM MgCl2, 10 mM DTT, 100 mM potassium glutamate, 40 μM ATP, 50 μg/mL bovine serum albumin, 10 mM NaCl). Two-tenths microgram of kinetoplast DNA (k-DNA; TopoGen, Columbus, Ohio) was incubated with 5 ng of E. coli Topoisomerase IV in the presence or absence of test compounds for 10 minutes at 37° C. Subsequently, one-tenth volume of 10×gel loading buffer (0.3% bromophenol blue, 16% Ficoll, 10 mM Na2HPO4) was added, and samples were loaded onto horizontal 0.8% agarose gels prepared with TBE buffer and containing 0.05 μg/mL of ethidium bromide. Electrophoresis was at 70 V for 2 to 4 hours. Gels were then examined by exposure to UV light. The concentration of drug inhibiting 50% of the decantenating activity of Topoisomerase IV is given as an IC50 and recorded in Table 2.

[8] = tested on: B. subtilis RB1; experiment: Antibacterial assay, standard microtitration (MIC); type: cell-based; conditions: Bacillus subtilis, Gram positive, read-out: Minimum Inhibitory Concentrations B. subtilis RB1
Experimental: as §1

[9] = supercoiling of relaxed pBR322, 30 minutes at 37° C., read-out: Gyrase IC50
[10] = k-DNA decatenation, 10 minutes at 37° C., read-out: DNA TopIV IC50

T1 sequence (P0AES4 whole entry, one chain of several): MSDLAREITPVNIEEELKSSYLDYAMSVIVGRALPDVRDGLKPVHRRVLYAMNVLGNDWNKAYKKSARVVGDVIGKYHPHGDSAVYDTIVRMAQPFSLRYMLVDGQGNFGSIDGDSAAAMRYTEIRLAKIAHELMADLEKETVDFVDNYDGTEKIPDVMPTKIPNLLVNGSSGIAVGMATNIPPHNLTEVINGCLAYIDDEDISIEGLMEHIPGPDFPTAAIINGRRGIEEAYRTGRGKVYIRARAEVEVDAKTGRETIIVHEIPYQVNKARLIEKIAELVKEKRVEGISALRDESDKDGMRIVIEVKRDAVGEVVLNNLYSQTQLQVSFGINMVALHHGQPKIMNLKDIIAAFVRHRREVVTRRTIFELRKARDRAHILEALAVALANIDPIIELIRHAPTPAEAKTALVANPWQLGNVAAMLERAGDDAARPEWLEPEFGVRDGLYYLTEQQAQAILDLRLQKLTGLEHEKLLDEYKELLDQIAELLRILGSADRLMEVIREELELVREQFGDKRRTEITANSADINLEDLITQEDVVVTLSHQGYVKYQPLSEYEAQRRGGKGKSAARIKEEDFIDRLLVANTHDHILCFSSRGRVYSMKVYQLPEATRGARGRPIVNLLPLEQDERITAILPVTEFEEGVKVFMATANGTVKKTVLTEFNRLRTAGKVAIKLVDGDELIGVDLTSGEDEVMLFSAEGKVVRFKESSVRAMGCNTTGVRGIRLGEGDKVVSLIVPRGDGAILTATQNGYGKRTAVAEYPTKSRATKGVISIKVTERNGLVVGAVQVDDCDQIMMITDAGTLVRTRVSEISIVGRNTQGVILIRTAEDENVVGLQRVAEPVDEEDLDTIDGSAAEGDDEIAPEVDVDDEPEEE
T2 sequence (P20083 whole entry): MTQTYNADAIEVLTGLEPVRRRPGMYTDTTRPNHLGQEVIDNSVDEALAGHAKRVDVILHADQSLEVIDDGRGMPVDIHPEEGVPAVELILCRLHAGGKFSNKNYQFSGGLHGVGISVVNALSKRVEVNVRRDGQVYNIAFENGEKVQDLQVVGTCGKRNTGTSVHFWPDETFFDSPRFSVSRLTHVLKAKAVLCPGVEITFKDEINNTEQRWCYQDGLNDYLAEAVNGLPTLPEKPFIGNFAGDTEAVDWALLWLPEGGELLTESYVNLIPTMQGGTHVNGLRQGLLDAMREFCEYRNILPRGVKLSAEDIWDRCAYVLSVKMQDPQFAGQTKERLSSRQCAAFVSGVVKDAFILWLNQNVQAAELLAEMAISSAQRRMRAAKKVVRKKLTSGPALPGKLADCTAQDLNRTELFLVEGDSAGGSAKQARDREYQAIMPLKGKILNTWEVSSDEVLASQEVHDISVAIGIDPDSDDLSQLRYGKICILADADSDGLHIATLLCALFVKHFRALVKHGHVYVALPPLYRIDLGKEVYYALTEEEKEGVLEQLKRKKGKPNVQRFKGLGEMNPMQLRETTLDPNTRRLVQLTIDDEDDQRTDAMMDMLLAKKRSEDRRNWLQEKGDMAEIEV
T2 sequence (P0AFI2 whole entry): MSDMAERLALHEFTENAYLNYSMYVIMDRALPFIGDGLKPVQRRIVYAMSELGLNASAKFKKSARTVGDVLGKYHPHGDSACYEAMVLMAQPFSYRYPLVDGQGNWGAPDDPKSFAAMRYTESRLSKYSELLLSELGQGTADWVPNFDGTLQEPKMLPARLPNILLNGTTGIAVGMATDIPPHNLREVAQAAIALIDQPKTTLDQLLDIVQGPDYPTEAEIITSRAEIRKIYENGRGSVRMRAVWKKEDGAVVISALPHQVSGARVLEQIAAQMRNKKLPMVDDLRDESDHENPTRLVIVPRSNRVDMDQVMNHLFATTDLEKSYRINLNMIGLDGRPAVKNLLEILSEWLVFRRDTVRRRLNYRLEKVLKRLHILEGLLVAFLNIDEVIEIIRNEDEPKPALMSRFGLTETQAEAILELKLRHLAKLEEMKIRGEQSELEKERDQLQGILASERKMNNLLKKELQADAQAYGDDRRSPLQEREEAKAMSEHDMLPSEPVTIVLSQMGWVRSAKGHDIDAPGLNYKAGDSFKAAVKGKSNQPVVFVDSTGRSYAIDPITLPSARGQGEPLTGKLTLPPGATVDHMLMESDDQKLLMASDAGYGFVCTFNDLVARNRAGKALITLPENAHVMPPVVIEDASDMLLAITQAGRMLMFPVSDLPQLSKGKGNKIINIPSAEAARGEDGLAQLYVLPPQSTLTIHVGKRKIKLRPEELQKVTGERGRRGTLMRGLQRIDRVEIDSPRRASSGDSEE

| Structure (SMILES) | MIC [1] | MIC [2] | MIC [3] | MIC [4] | MIC [5] | IC50 [6, 9] | IC50 [7, 10] | MIC [8] | IC50 [6] | IC50 [7] | Minimum Inhibitory Concentrations E. coli B90 [1] | Minimum Inhibitory Concentrations E. coli MC4100 [2] | Minimum Inhibitory Concentrations E. coli Tol C [3] | Minimum Inhibitory Concentrations S. aureus 29213 [4] | Minimum Inhibitory Concentrations S. pyogenes C203 [5] |
| --- | --- | --- | --- | --- | --- | --- | --- | --- | --- | --- | --- | --- | --- | --- | --- |
| O=c1c2cc(F)c(N3CCCC3)c3c2n(c(=O)n1O)CCS3 [Example 44, 8-Fluoro-5-hydroxy-9-pyrrolidin-1-yl-2,3-dihydro-1-thia-3α,5-diaza-phenalene-4,6-dione] | 1 µg/mL (≈ 3.09 µM) | > 64 µg/mL | 1 µg/mL (≈ 3.09 µM) | 4 µg/mL (≈ 12.4 µM) | 32 µg/mL (≈ 99 µM) | 12 µM | > 100 µM | – | – | – | – | – | – | – | – |
| Cl.NC1CCN(c2cc3c(cc2F)c(=O)n(O)c(=O)n3-c2ccc(F)cc2)C1 (stereo not drawn) [Example 17, 1-(4-Fluorophenyl)-6-fluoro-3-hydroxy-7-(3-aminopyrrolidin-1-yl)-1H-quinazoline-2,4-dione, hydrochloride] | 64 µg/mL | > 64 µg/mL | 32 µg/mL | > 64 µg/mL | 32 µg/mL | – | – | – | – | – | – | – | – | – | – |
| CCn1c(=O)n(O)c(=O)c2cc(F)c(N3CCN(C)CC3)cc21 [Example 2, 1-Ethyl-6-fluoro-3-hydroxy-7-(4-methyl-piperazin-1-yl)-1H-quinazoline-2,4-dione] | 4 µg/mL (≈ 12.4 µM) | 16 µg/mL (≈ 49.6 µM) | 2 µg/mL (≈ 6.2 µM) | > 64 µg/mL | > 64 µg/mL | – | – | 16 µg/mL (≈ 49.6 µM) | 22 µM | > 100 µM | – | – | – | – | – |
| O=c1c2cc(F)c(N3CCCC3)cc2n(-c2ccc(O)cc2)c(=O)n1O [Example 14, 1-(4-Hydroxyphenyl)-6-fluoro-3-hydroxy-7-pyrrolidin-yl-1-1H-quinazoline-2,4-dione] | 4 µg/mL (≈ 11.2 µM) | 64 µg/mL (≈ 179 µM) | 1 µg/mL (≈ 2.8 µM) | 32 µg/mL (≈ 89.6 µM) | 64 µg/mL (≈ 179 µM) | 46 µM | – | – | – | – | – | – | – | – | – |
| CCn1c(=O)n(O)c(=O)c2cc(F)c(N3CCCCC3)cc21 [Example 4, 1-Ethyl-6-fluoro-3-hydroxy-7-piperidin-1-yl-1H-quinazoline-2,4-dione] | 16 µg/mL (≈ 52.1 µM) | > 64 µg/mL | 16 µg/mL (≈ 52.1 µM) | 64 µg/mL (≈ 208 µM) | 64 µg/mL (≈ 208 µM) | – | – | 8 µg/mL (≈ 26 µM) | – | – | – | – | – | – | – |
| CCn1c(=O)n(O)c(=O)c2cc(F)c(N3CCC(C)(CN)C3)cc21.Cl (stereo not drawn) [Example 9, 7-(3-Aminomethyl-3-methyl-pyrrolidin-1-yl)-1-ethyl-6-fluoro-3-hydroxy-1H-quinazoline-2,4-dione, hydrochloride] | 4 µg/mL | 16 µg/mL | 2 µg/mL | 16 µg/mL | 8 µg/mL | – | – | 16 µg/mL | 15.5 µM | > 100 µM | – | – | – | – | – |
| CCn1c(=O)n(O)c(=O)c2cc(F)c(N3CCC(N)C3)nc21.O=C(O)C(F)(F)F (stereo not drawn) [Example 36, 7-(3-Aminopyrrolidin-1-yl)-1-ethyl-6-fluoro-3-hydroxy-1H-pyrido[2,3-d]pyrimidine-2,4-dione, trifluoroacetate] | 2 µg/mL | 8 µg/mL | 2 µg/mL | 64 µg/mL | 32 µg/mL | – | – | – | – | – | – | – | – | – | – |
| NC1CCN(c2cc3c(cc2F)c(=O)n(O)c(=O)n3C2CC2)C1 (stereo not drawn) [Example 39, 7-(3-Amino-pyrrolidin-1-yl)-1-cyclopropyl-6-fluoro-3-hydroxy-1H-quinazoline-2,4-dione] | 0.3 µg/mL (≈ 0.937 µM) | 1 µg/mL (≈ 3.12 µM) | 0.25 µg/mL (≈ 0.78 µM) | 32 µg/mL (≈ 99.9 µM) | 4 µg/mL (≈ 12.5 µM) | 2.4 µM | 9 µM | 2 µg/mL (≈ 6.24 µM) | – | – | – | – | – | – | – |
| O=c1c2cc(F)c(N3CCCC3)cc2n(C2CC2)c(=O)n1O [Example 38, 1-Cyclopropyl-6-fluoro-3-hydroxy-7-(pyrrolidin-1-yl)-1H-quinazoline-2,4-dione] | 0.1 µg/mL (≈ 0.328 µM) | 8 µg/mL (≈ 26.2 µM) | 0.1 µg/mL (≈ 0.328 µM) | 1 µg/mL (≈ 3.28 µM) | 16 µg/mL (≈ 52.4 µM) | 6.6 µM | 57 µM | 0.25 µg/mL (≈ 0.819 µM) | – | – | – | – | – | – | – |
| N[C@@H]1[C@H]2CN(c3cc4c(cc3F)c(=O)n(O)c(=O)n4C3CC3)C[C@@H]12.O=C(O)C(F)(F)F [Example 42, (1α, 5α, 6α)7-(6-Amino-3-aza-bicyclo[3.1.0]hex-3-yl)-1-cyclopropyl-6-fluoro-3-hydroxy-1H-quinazoline-2,4-dione, trifluoroacetate] | – | – | – | – | – | 0.76 µM | 28 µM | – | – | – | 0.25 µg/mL | 1.0 µg/mL | 0.25 µg/mL | 4.0 µg/mL | 2.0 µg/mL |
| O=c1c2cc(F)c(N3CCCC3)nc2n(C2CC2)c(=O)n1O [Example 32, 1-Cyclopropyl-6-fluoro-3-hydroxy-7-pyrrolidin-1-yl-1H-pyrido[2,3-d]pyrimidine-2,4-dione] | 0.5 µg/mL (≈ 1.63 µM) | > 64 µg/mL | 0.5 µg/mL (≈ 1.63 µM) | 8 µg/mL (≈ 26.1 µM) | 64 µg/mL (≈ 209 µM) | 6.4 µM | > 100 µM | – | – | – | – | – | – | – | – |
| CCn1c(=O)n(O)c(=O)c2cc(F)c(N3CCNCC3)cc21 [Example 7, 1-Ethyl-6-fluoro-3-hydroxy-7-piperazin-1-yl-1H-quinazoline-2,4-dione] | 4 µg/mL (≈ 13 µM) | 16 µg/mL (≈ 51.9 µM) | 8 µg/mL (≈ 25.9 µM) | > 64 µg/mL | > 64 µg/mL | – | – | > 64 µg/mL | > 100 µM | 49 µM | – | – | – | – | – |
| O=c1c2cc(F)c(N3CCCC3)cc2n(-c2cccc(F)c2)c(=O)n1O [Example 28, 1-(3-Fluorophenyl)-6-fluoro-3-hydroxy-7-pyrrolidin-1-yl-1H-quinazoline-2,4-dione] | 2 µg/mL (≈ 5.57 µM) | > 64 µg/mL | 2 µg/mL (≈ 5.57 µM) | 32 µg/mL (≈ 89.1 µM) | 32 µg/mL (≈ 89.1 µM) | – | – | – | – | – | – | – | – | – | – |
| O=c1c2cc(F)c(N3CCCC3)nc2n(-c2ccc(F)cc2)c(=O)n1O [Example 56, 6-Fluoro-1-(4-fluorophenyl)-3-hydroxy-7-pyrrolidin-1-yl-1H-pyrido[2,3-d]pyrimidine-2,4-dione] | 0.13 µg/mL (≈ 0.361 µM) | 16 µg/mL (≈ 44.4 µM) | 0.13 µg/mL (≈ 0.361 µM) | 8 µg/mL (≈ 22.2 µM) | 8 µg/mL (≈ 22.2 µM) | – | – | – | – | – | – | – | – | – | – |
| NC1C2CN(c3c(F)cc4c(=O)n(O)c(=O)n5c4c3SCC5)CC12.O=C(O)C(F)(F)F (stereo not drawn) [Example 46, (1α,5α,6α)9-(6-Amino-3-aza-bicyclo[3.1.0]hex-3-yl)-8-fluoro-5-hydroxy-2,3-dihydro-1-thia-3α,5-diaza-phenalene-4,6-dione, trifluoroacetate] | – | – | – | – | – | 8.3 µM | – | – | – | – | 2.0 µg/mL | 8.0 µg/mL | 1.0 µg/mL | >64 µg/mL | 32 µg/mL |
| CCn1c(=O)n(O)c(=O)c2cc(F)c(N3CCCC3)cc21 [Example 1, 1-Ethyl-6-fluoro-3-hydroxy-7-pyrrolidin-1-yl-1H-quinazoline-2,4-dione] | 2 µg/mL (≈ 6.82 µM) | > 64 µg/mL | 1 µg/mL (≈ 3.41 µM) | 32 µg/mL (≈ 109 µM) | 32 µg/mL (≈ 109 µM) | – | – | 4 µg/mL (≈ 13.6 µM) | – | – | – | – | – | – | – |
| CCn1c(=O)n(O)c(=O)c2cc(F)c(N3CCC(CN)C3)cc21.Cl (stereo not drawn) [Example 6, 7-(3-Aminomethyl-pyrrolidin-1-yl)-1-ethyl-6-fluoro-3-hydroxy-1H-quinazoline-2,4-dione, hydrochloride] | 8 µg/mL | 64 µg/mL | 8 µg/mL | 64 µg/mL | 16 µg/mL | – | – | 32 µg/mL | 5.5 µM | 59 µM | – | – | – | – | – |
| COc1cccc(-n2c(=O)n(O)c(=O)c3cc(F)c(N4CCCC4)cc32)c1 [Example 23, 1-(3-Methoxyphenyl)-6-fluoro-3-hydroxy-7-pyrrolidin-1-yl-1H-quinazoline-2,4-dione] | 32 µg/mL (≈ 86.2 µM) | > 64 µg/mL | 32 µg/mL (≈ 86.2 µM) | 32 µg/mL (≈ 86.2 µM) | 32 µg/mL (≈ 86.2 µM) | 36 µM | > 100 µM | – | – | – | – | – | – | – | – |
